In brackets after ≈: the same amount, converted by molar mass. Several values for one entry are separate records, joined by “and”; a condition that tells them apart may be missing. Equal entries are not always repeated.
Tests used:
[1] = system: cervical carcinoma (HeLa); experiment: MTT cytotoxicity assay, HeLa; conditions: for SI HeLa: IC50 WI-38 / IC50 HeLa; for IC50: read-out: IC50 HeLa, MTT, mean ± SD of three measurements
[2] = system: liver carcinoma (HepG-2); experiment: MTT cytotoxicity assay, HepG-2; conditions: for SI HepG-2: IC50 WI-38 / IC50 HepG-2; for IC50: read-out: IC50 HepG-2, MTT, mean ± SD of three measurements
[3] = in vitro; conditions: human, WI-38 normal lung fibroblast cells
[4] = system: P. aeruginosa ATCC10145; experiment: Well diffusion inhibition zone, P. aeruginosa; conditions: Pseudomonas aeruginosa, ATCC10145, read-out: Inhibition zone P. aeruginosa ATCC10145
[5] = system: HeLa, HepG-2, and MCF-7; experiment: MTT cytotoxicity, range over the cancer cell panel; conditions: read-out: IC50 across HeLa, HepG-2 and MCF-7; range over all examined cancer cell lines
[6] = system: breast carcinoma (MCF-7); experiment: MTT cytotoxicity assay, MCF-7; conditions: for SI MCF-7: IC50 WI-38 / IC50 MCF-7; for IC50: read-out: IC50 MCF-7, MTT, mean ± SD of three measurements
[7] = system: E. faecalis ATCC29212; experiment: Well diffusion inhibition zone, E. faecalis; conditions: Enterococcus faecalis, ATCC29212, read-out: Inhibition zone E. faecalis ATCC29212
[8] = system: S. aureus ATCC25923; experiment: MIC, two-fold serial dilution, S. aureus; type: cell-based, Staphylococcus aureus; conditions: for MIC: Staphylococcus aureus, ATCC25923
[9] = system: E.coli ATCC25915; experiment: Well diffusion inhibition zone, E. coli; conditions: Escherichia coli, ATCC25915, read-out: Inhibition zone E.coli ATCC25915
[10] = system: E. faecalis ATCC29212; experiment: MIC, two-fold serial dilution, E. faecalis; type: cell-based, Enterococcus faecalis; conditions: for MIC: Enterococcus faecalis, ATCC29212
[11] = system: S. aureus ATCC25923; experiment: Well diffusion inhibition zone, S. aureus; conditions: Staphylococcus aureus, ATCC25923, read-out: Inhibition zone S. aureus ATCC25923
[12] = system: E. coli ATCC25915; experiment: MIC, two-fold serial dilution, E. coli; type: cell-based; conditions: Escherichia coli
[13] = system: P. aeruginosa ATCC10145; experiment: MIC, two-fold serial dilution, P. aeruginosa; type: cell-based; conditions: Pseudomonas aeruginosa

Structure (SMILES) | SI HeLa [1] | IC50 [1] | SI HepG-2 [2] | IC50 [2] | IC50 at 48 h [3] | zone of inhibition at 100 µg/mL [4] | IC50 [5] | SI MCF-7 [6] | IC50 [6] | zone of inhibition at 100 µg/mL [9] | further results
Cn1c(=O)c2c(-c3ccc(Cl)cc3)c(-c3nn(CCc4nn[nH]n4)c(=S)o3)c(N)nc2n(C)c1=O [Compound 10, 6-{4-[2-(2H-Tetrazol-5-yl)ethyl]-5-thioxo-4,5-dihydro-1,3,4-oxadiazol-2-yl}-7-amino-5-(4-chlorophenyl)-1,3-dimethylpyrido[2,3-d]pyrimidine-2,4(1H,3H)-dione] | 0.77 | 48.7 ± 2.8 µM | 0.54 | 69.4 ± 3.7 µM | 37.9 ± 2.4 µM | 6 mm | > 50 µM | 0.71 | 53.1 ± 3.1 µM | – | –
CC1=NN(C(=S)NC(=O)c2c(N)nc3c(c2-c2ccc(Cl)cc2)c(=O)n(C)c(=O)n3C)C(=O)C1 [Compound 16, 7-Amino-5-(4-chlorophenyl)-1,3-dimethyl-N-(3-methyl-5-oxo-4,5-dihydro-1H-pyrazole-1-carbonothioyl)-2,4-dioxo-1,2,3,4-tetrahydropyrido[2,3-d]pyrimidine-6-carboxamide] | 1.65 | 34.8 ± 2.1 µM | 0.88 | 65.1 ± 3.4 µM | 57.6 ± 3.2 µM | 17.6 mm | 35 to 65 µM | 1.34 | 42.9 ± 2.5 µM | 18.5 ± 0.15 mm | zone of inhibition at 100 µg/mL [7]: 4 ± 0.6 mm; MIC [8]: 100 µg/mL (≈ 200 µM); MIC [10]: 100 µg/mL (≈ 200 µM); zone of inhibition at 100 µg/mL [11]: 4.5 ± 0.1 mm; MIC [12]: 50 µg/mL (≈ 100 µM)
Cc1cc(C)n(C(=O)c2c(N)nc3c(c2-c2ccc(Cl)cc2)c(=O)n(C)c(=O)n3C)n1 [Compound 6, 7-Amino-5-(4-chlorophenyl)-6-(3,5-dimethyl-1H-pyrazole-1-carbonyl)-1,3-dimethylpyrido[2,3-d]pyrimidine-2,4(1H,3H)-dione] | 1.54 | 24.8 ± 1.6 µM | 1.29 | 29.7 ± 1.8 µM | 38.4 ± 2.6 µM | – | 24 to 32 µM | 1.20 | 32 ± 1.9 µM | – | –
Cn1c(=O)c2c(-c3ccc(Cl)cc3)c(-c3nnc(S)n3N)c(N)nc2n(C)c1=O [Compound 4, 7-Amino-6-(4-amino-5-mercapto-4H-1,2,4-triazol-3-yl)-5-(4-chlorophenyl)-1,3-dimethylpyrido[2,3-d]pyrimidine-2,4(1H,3H)-dione] | 2.43 | 18.9 ± 1.4 µM | 1.99 | 23.1 ± 1.6 µM | 46.1 ± 2.7 µM | 6 mm | 14 to 26 µM | 1.76 | 26.1 ± 1.7 µM | – | –
Cn1c(=O)c2c(-c3ccc(Cl)cc3)c(C3=NN=C4N=CNC(=O)C43)c(N)nc2n(C)c1=O (stereo not shown) [Compound 11, 7-Amino-5-(4-chlorophenyl)-1,3-dimethyl-6-(4-oxo-3a,5-dihydro-4H-pyrazolo [3,4-d]pyrimidin-3-yl)pyrido[2,3-d]pyrimidine-2,4(1H,3H)-dione] | – | 56.4 ± 3.2 µM | – | 73.2 ± 3.8 µM | > 100 µM | 8.6 mm | > 50 µM | – | 60.6 ± 3.5 µM | 2 ± 0.1 mm | –
Cn1c(=O)c2c(-c3ccc(Cl)cc3)c(-c3nnc4sc(S)nn34)c(N)nc2n(C)c1=O [Compound 15, 7-Amino-5-(4-chlorophenyl)-6-(6-mercapto-[1,2,4]triazolo[3,4-b][1,3,4]thiadiazol-3-yl)-1,3-dimethylpyrido[2,3-d]pyrimidine-2,4(1H,3H)-dione] | 1.03 | 39.8 ± 2.4 µM | 0.79 | 51.8 ± 2.9 µM | 41.2 ± 2.5 µM | 10.3 mm | 40 to 52 µM | 0.86 | 47.5 ± 2.8 µM | 7.5 ± 0.15 mm | –
Cn1c(=O)c2c(-c3ccc(Cl)cc3)c(C(=O)Nc3n[nH]cc3NN)c(N)nc2n(C)c1=O [Compound 3, 7-Amino-5-(4-chlorophenyl)-N-(4-hydrazinyl-1H-pyrazol-3-yl)-1,3-dimethyl-2,4-dioxo-1,2,3,4-tetrahydropyrido[2,3-d]pyrimidine-6-carboxamide] | 3.73 | 14.1 ± 1.2 µM | 2.46 | 21.4 ± 1.5 µM | 52.8 ± 2.9 µM | – | 14 to 26 µM | 2.70 | 19.5 ± 1.3 µM | – | –
Cn1c(=O)c2c(-c3ccc(Cl)cc3)c(C3=NN=C(N)C3C#N)c(N)nc2n(C)c1=O (stereo not shown) [Compound 8, 3-Amino-5-[7-amino-5-(4-chlorophenyl)-1,3-dimethyl-2,4-dioxo-1,2,3,4-tetrahydropyrido[2,3-d]pyrimidin-6-yl]-4H-pyrazole-4-carbonitrile] | 0.35 | 71.4 ± 3.8 µM | 0.30 | 82.8 ± 4.1 µM | 25.2 ± 1.8 µM | – | > 50 µM and 62 to 88 µM | 0.31 | 79.3 ± 3.9 µM | – | –
Cn1c(=O)c2c(-c3ccc(Cl)cc3)c(-c3nnc4n3N=C(Cl)CS4)c(N)nc2n(C)c1=O [Compound 14, 7-Amino-6-(6-chloro-7H-[1,2,4]triazolo [3,4-b][1,3,4]thiadiazin-3-yl)-5-(4-chlorophenyl)-1,3-dimethylpyrido[2,3-d]pyrimidine-2,4(1H,3H)-dione] | 0.32 | 68.7 ± 3.6 µM | 0.23 | 93.7 ± 4.8 µM | 22.5 ± 1.6 µM | 9.5 mm | > 50 µM and 69 to 94 µM | 0.29 | 75.1 ± 3.8 µM | 8.15 ± 0.3 mm | zone of inhibition at 100 µg/mL [11]: 3 ± 0.05 mm
Cn1c(=O)c2c(-c3ccc(Cl)cc3)c(C(=O)NC(=S)NN)c(N)nc2n(C)c1=O [Compound 5, 7-Amino-5-(4-chlorophenyl)-N-(hydrazinecarbonothioyl)-1,3-dimethyl-2,4-dioxo-1,2,3,4-tetrahydropyrido[2,3-d]pyrimidine-6-carboxamide] | 0.39 | 89.4 ± 4.6 µM | – | > 100 µM | 35.2 ± 2.2 µM | – | > 84 µM | 0.41 | 84.1 ± 4.2 µM | – | –
Cc1cc(C)n(-c2c[nH]nc2NC(=O)c2c(N)nc3c(c2-c2ccc(Cl)cc2)c(=O)n(C)c(=O)n3C)n1 [Compound 13, 7-Amino-5-(4-chlorophenyl)-N-(3,5-dimethyl-1′H-[1,4′-bipyrazol]-3′-yl)-1,3-dimethyl-2,4-dioxo-1,2,3,4-tetrahydropyrido[2,3-d]pyrimidine-6-carboxamide] | 0.37 | 28.7 ± 1.9 µM | 0.32 | 32.6 ± 2.1 µM | 10.7 ± 0.8 µM | 16.8 mm | 28 to 36 µM | 0.29 | 36.1 ± 2.2 µM | 14.5 ± 0.15 mm | MIC S. aureus ATCC25923 [8]: >100 µg/mL; MIC [8]: > 100 µg/mL; MIC E. faecalis ATCC29212 [10]: >100 µg/mL; MIC [10]: > 100 µg/mL; MIC [13]: 100 µg/mL (≈ 192 µM); MIC [12]: 50 µg/mL (≈ 96.2 µM)
Cn1c(=O)c2c(-c3ccc(Cl)cc3)c(-c3nnc(S)o3)c(N)nc2n(C)c1=O [Compound 7, 7-Amino-5-(4-chlorophenyl)-6-(5-mercapto-1,3,4-oxadiazol-2-yl)-1,3-dimethylpyrido[2,3-d]pyrimidine-2,4(1H,3H)-dione] | 2.75 | 9.72 ± 0.9 µM | 1.52 | 17.5 ± 1.3 µM | 26.8 ± 1.8 µM | – | 9.72 to 17.5 µM | 2.30 | 11.6 ± 0.9 µM | – | –
Cn1c(=O)c2c(-c3ccc(Cl)cc3)c(-c3nn(CCC#N)c(=S)o3)c(N)nc2n(C)c1=O [Compound 9, 3-{5-[7-Amino-5-(4-chlorophenyl)-1,3-dimethyl-2,4-dioxo-1,2,3,4-tetrahydropyrido [2,3-d]pyrimidin-6-yl]-2-thioxo-1,3,4-oxadiazol-3(2H)-yl}propanenitrile] | – | 62.7 ± 3.5 µM | – | 88.6 ± 4.4 µM | > 100 µM | 7.6 mm | > 50 µM and 62 to 88 µM | – | 67.8 ± 3.6 µM | – | –
O=C(O)c1cn(C2CC2)c2cc(N3CCNCC3)c(F)cc2c1=O [Ciprofloxacin, reference compound] | – | – | – | – | – | – | – | – | – | – | zone of inhibition at 50 µg/mL [7]: 7.5 mm; zone of inhibition at 50 µg/mL [9]: 10 mm; zone of inhibition at 50 µg/mL [11]: 8 ± 0.15 mm; zone of inhibition at 50 µg/mL [4]: 12.3 ± 0.4 mm
C#Cc1cccc(Nc2ncnc3cc(OCCOC)c(OCCOC)cc23)c1 [Erlotinib, erlotinib, reference compound] | – | 8.04 ± 0.5 µM | – | 9.18 ± 0.6 µM | 78.3 ± 3.9 µM | – | – | – | 7.26 ± 0.3 µM | – | –

Source: paper PMC12567244, “Innovative Amino-Functionalization of Pyrido[2,3-d]pyrimidine Scaffolds for Broad Therapeutic Applications Supported by Computational Analyses” (Pharmaceuticals, 2025)
